From patent US20230407243A1, “GENETIC PLATFORM TO INVESTIGATE THE FUNCTIONS OF BACTERIAL DRUG EFFLUX PUMPS” (priority 2022, published 2023)
Converted amounts (≈) assume the structure as drawn. “Also recorded” adds a separate entry of the source.

Key:
Type in all cases: cell-based, Escherichia coli
[1] = system: EKO-35 wcaC (pCA24N); experiment: MIC of strains harboring ASKA plasmids; conditions: EKO-35 wcaC; Chlor + (4 μg/mL); 0.1 mM IPTG
[2] = system: ΔtolC-Pore; conditions: ΔtolC Pore
Outline: (§1)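 Checkerboard broth microdilution in MHB II followed CLSI guidelines, with MIC defined as the lowest concentration giving no growth by OD600. FICI was calculated as CA/MICA + CB/MICB for PAβN or NMP combined with an antibiotic, with <0.5 classed as synergistic. Efflux-attributed fold resistance is the strain MIC divided by the EKO-35 MIC.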

[3] = system: wild-type E. coli K-12; conditions: K-12
Outline: as §1

[4] = system: EKO-35 acrBD408A; conditions: EKO-35 acrBD408A
Outline: as §1

[5] = system: EKO-35
Outline: as §1

[6] = system: ΔtolC; conditions: ΔtolC
Outline: as §1

[7] = system: EKO-35-Pore acrBD408A (functionally inactive AcrB variant); experiment: Checkerboard synergy (FICI), porinated strain; conditions: EKO-35 acrBD408A Pore
Outline: as §1

[8] = system: wild-type K-12-Pore; experiment: Checkerboard synergy (FICI), porinated strain; conditions: K-12 Pore
Outline: as §1

[9] = system: EKO-35 porinated strain expressing acrB; experiment: Checkerboard synergy (FICI), porinated strain; conditions: EKO-35 acrB Pore
Outline: as §1

[10] = system: EKO-35-Pore; experiment: Checkerboard synergy (FICI), porinated strain
Outline: as §1

[11] = system: EKO-35 strains with integrated RND tripartite efflux pumps (AcrB, AcrEF, AcrD, and MdtEF) with pGDP2:emrE or empty pGDP-2; experiment: Efflux pump interplay MIC profiling (pGDP2:emrE); conditions: for MIC / Fold Change from EKO-35: Pore −
[12] = system: K-12 (empty pCA24N); experiment: MIC of strains harboring ASKA plasmids; conditions: Escherichia coli, K-12 empty pCA24N; Chlor + (25 μg/mL chloramphenicol); 0.1 mM IPTG; read-out: MIC
[13] = antibiotic alone (PAβN checkerboard)
[14] = antibiotic in combination with PAβN

## CO[C@@H]1[C@@H](OC(N)=O)[C@@H](O)[C@H](Oc2ccc3c(O)c(NC(=O)c4ccc(O)c(CC=C(C)C)c4)c(=O)oc3c2C)OC1(C)C [novobiocin]
[1]
  MIC: 1.56 µg/mL
[2]; PAβN + antibiotic
  Effect: Additive
  FICI: 0.740
[2]; [13]
  MICb Alone: 0.25 µg/mL
[2]; [14]
  MICb Combined: 0.06 µg/mL
[3]; PAβN + antibiotic
  Effect: Synergistic
  FICI: 0.188
[3]; [13]
  MICb Alone: 128 µg/mL
[3]; [14]
  MICb Combined: 8 µg/mL
[4]; PAβN + antibiotic
  Effect: Synergistic
  FICI: 0.375
[4]; [13]
  MICb Alone: 8 µg/mL
[4]; [14]
  MICb Combined: 2 µg/mL
[5]; EKO-35, PAβN + antibiotic
  Effect: Synergistic
  FICI: 0.375
[5]; EKO-35, antibiotic alone (PAβN checkerboard)
  MICb Alone: 4 µg/mL
[5]; EKO-35, antibiotic in combination with PAβN
  MICb Combined: 1 µg/mL
[5]; efflux-deficient strains EKO-35, EKO-35 acrBD408A, ΔtolC
  interaction of PAβN in combination with the labelled antibiotic (FICI): synergized
[6]; PAβN + antibiotic
  Effect: Synergistic
  FICI: 0.500
[6]; [13]
  MICb Alone: 2 µg/mL
[6]; [14]
  MICb Combined: 0.5 µg/mL
[7]; PAβN + antibiotic
  Effect: Additive
  FICI: 0.750
[7]; [13]
  MICb Alone: 1 µg/mL
[7]; [14]
  MICb Combined: 0.25 µg/mL
[8]; PAβN + antibiotic
  Effect: Additive
  FICI: 0.508
[8]; [13]
  MICb Alone: 16 µg/mL
[8]; [14]
  MICb Combined: 8 µg/mL
[9]; PAβN + antibiotic
  Effect: Synergistic
  FICI: 0.094
[9]; [13]
  MICb Alone: 512 µg/mL
[9]; [14]
  MICb Combined: 16 µg/mL
[10]; EKO-35 Pore, PAβN + antibiotic
  Effect: Additive
  FICI: 0.630
[10]; EKO-35 Pore, antibiotic alone (PAβN checkerboard)
  MICb Alone: 1 µg/mL
[10]; EKO-35 Pore, antibiotic in combination with PAβN
  MICb Combined: 0.13 µg/mL
[10]; porinated efflux-deficient strains
  interaction of PAβN in combination with the labelled antibiotic (FICI): no longer synergistic
[11]; EKO-35, AcrB, AcrEF, AcrD, MdtEF combined with pEmrE
  interplay of EmrE with tripartite efflux pumps on resistance: Interplay was not observed; also recorded: did not observe synergy
[11]; negative controls
  extrusion by EmrE: not extruded by EmrE
[11]; strain EKO-35
  MIC: 0.781 µg/mL (≈ 1.27 µM)
[11]; strain EKO-35 pEmrE
  Fold Change from EKO-35: 1
  MIC: 0.781 µg/mL (≈ 1.27 µM)
[11]; strain acrB pEmrE
  Fold Change from EKO-35: 512
  MIC: 400 µg/mL (≈ 653 µM)
[11]; strain acrB
  Fold Change from EKO-35: 512
  MIC: 400 µg/mL (≈ 653 µM)
[11]; strain acrD pEmrE
  Fold Change from EKO-35: 64
  MIC: 50 µg/mL (≈ 81.6 µM)
[11]; strain acrD
  Fold Change from EKO-35: 128
  MIC: 100 µg/mL (≈ 163 µM)
[11]; strain acrEF pEmrE
  Fold Change from EKO-35: 64
  MIC: 50 µg/mL (≈ 81.6 µM)
[11]; strain acrEF
  Fold Change from EKO-35: 128
  MIC: 100 µg/mL (≈ 163 µM)
[11]; strain mdtEF pEmrE
  Fold Change from EKO-35: 8
  MIC: 6.25 µg/mL (≈ 10.2 µM)
[11]; strain mdtEF
  Fold Change from EKO-35: 16
  MIC: 12.5 µg/mL (≈ 20.4 µM)
[12]
  MIC: 200 µg/mL
